Measured values taken from patent US5856535A, “Aminosterol ester compounds” (priority 1996, dated 1999).
Converted amounts (≈) assume the structure as drawn. “Also recorded” adds a separate entry of the source. Read-outs that look alike come from different tables or passages of the source. One block for each compound: values may come before it.

Assays:
splenocytes = experiment: mitogen proliferation assay (splenocytes of treated mice, Con A); format: in vivo; conditions: for potency in the mitogen proliferation assay (in words): mouse, in vivo; for Rel. potency to MSI-1436, Mitogen Proliferation Assay: 10 mg/kg iv
Protocol: For the attached Tables, the mitogen proliferation assay was performed by treating mice (male or female) with various amounts of the aminosterol test compounds. Some time later (typically between 2 hours and 14 days), the mice are sacrificed and their spleens removed. Splenocytes are harvested and cultured in the presence of between 1-10 μg/ml of Con A (Sigma) for 48 hours. See James Morgan, "Monoclonal Antibody Production," Modern Methods in Pharmacology, pp. 29-67, eds., Spector and Back, 1988. This excerpt is entirely incorporated herein by reference. Cell proliferation is monitored either by direct cell counting or by measurement of the incorporation of radioactive thymidine.

red blood cells = experiment: swelling of red blood cells; format: cell-based
LLC = LLC MTT; format: cell-based; conditions: Lewis lung carcinoma, 48 h; Table II; read-out: Minimum Effective Concentration, LLC MTT
Protocol: (§1) The MTT assay for cell number is performed as follows. Cells are counted on a hemocytometer and diluted to a concentration of approx. 10,000 cells/well (55,000 cells/ml×0.18 ml). Cells are then plated in a 96 well microtiter plate and allowed to attach overnight. The next day, compounds are serially diluted from 1000 to 15.6 μg/ml and run in duplicate. 20 μl of each dilution are transferred to the pre-seeded microtiter plates. The final concentrations are 100 to 1.56 μg/ml. The plates are then incubated for 48 hours at 37° C. in 5% CO2. After 48 hours, MTT solution is added. The plate is re-incubated for 4 hours. Readings are done by removing all but 30 μl of media and MTT solution and dissolving the formazan crystals with DMSO. The formazan is dissolved by mixing on a rotating plate at low speed for about 30 minutes. Absorbance of converted dye is measured at a wavelength of 560 nm with background subtraction at 630 nm. The percent survival is determined by a comparison between the mean absorbance of the duplicate test lanes and the growth control.

melanoma cells = experiment: MTT assay for cell number; format: cell-based; conditions: for minimal effective concentration: 48 h, Table II, read-out: Minimum Effective Concentration, MTT assay; for IC50: read-out: MTT assay IC50
Protocol: In Table V, several aminosterol esters show efficacy in killing melanoma cells in the MTT assay.
as §1

HIV = experiment: inhibition of HIV replication in vitro (HIV Inhib.); format: cell-based
[1] = inhibition of MSI-1436 binding; conditions: 3H-MSI-1436 at 20 μg/mL
in vitro = conditions: human, pbmc
[2] = system: Xenopus laevis Stages 59-60 tadpoles; experiment: tadpole assay; format: in vivo; conditions: for vascular effect in tadpole (in words): about 60 minutes
[3] = system: chick embryo vitelline capillaries; experiment: chick embryo vitelline capillary regression assay; format: in vivo; conditions: for effect on vitelline capillaries (in words): 3- to 5-day chick embryo
Protocol: Using the chick embryo vitelline capillaries assay, various aminosterol compounds were tested for their ability to induce capillary regression. Each compound was applied in 0.1 ml of 15% Ficol 400 and PBS onto the embryo, and vascular regression was assessed after 60 minutes. These tests were conducted by the chorioallantoic membrane anti-angiogenesis assay by applying the material to be assayed to 3 day old fertilized chick embryos in the manner described by Wilks et al., "Inhibition of Angiogenesis With Combination Angiostatic Steroids and Suramin," Radiation Biology, Vol. 60, Nos. 1/2, 1991, pp. 73-77, which article is entirely incorporated herein by reference.
The 3-day chick embryo consists of an embryonic disc from which numerous vessels emerge and return, forming a "figure 8"-shaped structure--the embryo in the center with vascular loops extending outward over both poles. […] Following a lag period of around 15 minutes, the constriction of continuity between capillary and secondary vessels, generally on the "venous" side, was observed. Continued pulsatile blood flow progressed, resulting in a "swelling" of the blind tube, followed by a pinching off of the remaining connection and formation of an enclosed vascular sac resembling a "blood island." This process progressed until only the largest vessels remained intact.

[4] = system: human microvascular cells; experiment: endothelial cell cord formation assay (human microvascular cells, VEGF and bFGF, collagen matrix); format: cell-based
Source text: Endothelial cells have the capacity in vitro to form tubular aggregates resembling capillaries in various early stages of formation. This conversion occurs under relatively specific conditions, in which essential growth factors along with an effective substratum are provided. It has been shown that both the interaction of growth factors with the endothelial cell and its attachment to a substratum activate the NHE. The activation of this exchanger is believed to be required for subsequent morphologic transformation of the endothelial cell into a multicellular tubular structure.
To assess the effect of compounds on the cord-like structures formed by human microvascular cells when plated in the presence of VEGF (Vascular Endothelial Growth Factor) and basic fibroblast growth factor on a collagen matrix, a standard cord formation assay was performed using the method described by Goto, et al., "Synergistic Effects of Vascular Endothelial Growth Factor and Basic Fibroblast Growth Factor on the Proliferation and Cord Formation of Bovine Capillary Endothelial Cells Within Collagen Gels," Laboratory Investigation, Vol. 69, No. 5, 1993, pp. 508-517. This article is entirely incorporated herein by reference.

[5] = system: bacteria, fungi and protozoa; conditions: cited from earlier work
PBMC toxicity = conditions: human
[6] = system: human ovarian carcinoma, SKOV3; experiment: anticancer activity against SKOV3; format: cell-based
[7] = Human immunodeficiency virus 1, read-out: % Inhib of HIV

SMILES: COC(=O)CC[C@@H](C)[C@H]1CC[C@H]2[C@@H]3C[C@@H](O)[C@H]4C[C@@H](NCCCNCCCCNCCCN)CC[C@]4(C)[C@H]3CC[C@]12C [Compound 466]
potency in the mitogen proliferation assay (in words) (splenocytes): substantial potency
induction of swelling of red blood cells (in words) (red blood cells): induce swelling of red blood cells

SMILES: CC(CC[C@@H](OS(=O)(=O)O)C(C)C)[C@H]1CCC2C3C(CC[C@@]21C)[C@@]1(C)CC[C@H](NCCCNCCCCNCCCN)C[C@@H]1C[C@H]3O (stereo partly drawn) [drawing 93]
minimal effective concentration (LLC): 16.7 µg/mL
minimal effective concentration (melanoma cells): 6.9 µg/mL

SMILES: CC(CCC(CO)(OS(=O)(=O)O)C(C)C)[C@H]1CCC2C3C(CC[C@@]21C)[C@@]1(C)CC[C@H](NCCCNCCCCN)C[C@@H]1C[C@H]3O (stereo partly drawn) [drawing 99]
inhibition at 0.14 µM (HIV; [7]): -44%
% Inhib. of MSI-1436 Binding @ 100 μg/mL [1]: 14%
Rel. potency to MSI-1436, Mitogen Proliferation Assay (splenocytes): 1.08
cytotoxicity at 14 µM (in vitro): 0%

SMILES: COC(=O)CC[C@@H](C)[C@H]1CC[C@H]2[C@@H]3CC[C@@H]4C[C@H](NCCCNCCCCNCCCN)CC[C@]4(C)[C@H]3CC[C@]12C [Compound 569]
inhibition of HIV relative to compound 1436 (in words) (HIV): higher inhibition of HIV than compound 1436
inhibition at 0.14 µM (HIV; [7]): 91%
% Inhib. of MSI-1436 Binding @ 100 μg/mL [1]: 78%
Rel. potency to MSI-1436, Mitogen Proliferation Assay (splenocytes): 0.50
potency in the mitogen proliferation assay (in words) (splenocytes): substantial potency
MTT assay IC50 (melanoma cells; Tables III-V): 15 µg/mL
IC50 (melanoma cells; Tables III-V): 14.5 µg/mL (≈ 25.2 µM)
cytotoxicity at 14 µM (in vitro): 9%

SMILES: CC(C)[C@@H](CC[C@@H](C)[C@H]1CC[C@H]2[C@@H]3[C@H](O)C[C@H]4C[C@@H](NCCCNCCCCN)CC[C@]4(C)[C@H]3CC[C@]12C)OS(=O)(=O)O [drawing 92]
minimal effective concentration (LLC): 13.2 µg/mL
minimal effective concentration (melanoma cells): 7.8 µg/mL

SMILES: CC(C)[C@@H](CC[C@@H](C)[C@H]1CC[C@H]2[C@@H]3[C@H](O)C[C@H]4C[C@@H](NCCCNCCCCN)CC[C@]4(C)[C@H]3CC[C@]12C)OS(=O)(=O)O [Squalamine, squalamine, reference compound]
unaffected functions in tadpole (in words) ([2]; 10 μg/ml): continued heartbeat; also recorded: unaltered blood flow through the fine capillaries of the hands and feet
vascular effect in tadpole (in words) ([2]; 10 μg/ml where stated): blood flow through the capillaries of the tail shut down; also recorded: enhanced regression of the most distal aspects of the tail; also recorded: common vascular occlusive effect
effect on vitelline capillaries (in words) [3]: disrupt vitelline capillaries in 3- to 5-day chick embryos
effect on vitelline capillaries (in words) ([3]; listed as squalamine): dramatic and rapid effect on capillary vessel integrity; also recorded: especially active
hemorrhage, hemolysis and heartbeat of embryo (in words) ([3]; 3-day chick embryo): embryonic heart continued to beat vigorously; also recorded: No hemorrhage was seen; also recorded: absence of hemolysis
minimal effective concentration ([4]; Homo sapiens, Endothelial cell, text to the table, read-out: concentration at which cord formation is inhibited): ~0.1 µg/mL
effect on cell viability or proliferation (in words) ([4]; at these concentrations): does not appear to profoundly affect cell viability or proliferation
antibiotic activity (in words) [5]: broad-spectrum antibiotic, killing bacteria, fungi and protozoa

% Inhib. of MSI-1436 Binding @ 100 μg/mL [1]: 82%
IC50 (melanoma cells; Tables III-V): 7.8 µg/mL (≈ 11.4 µM)
SMILES: CC(C)[C@@H](CC[C@@H](C)[C@H]1CC[C@H]2[C@@H]3[C@H](O)C[C@H]4C[C@@H](NCCCNCCCCNCCCN)CC[C@]4(C)[C@H]3CC[C@]12C)OS(=O)(=O)O [Compound 1436, reference compound]
vascular effect in tadpole (in words) ([2]; 10 μg/ml where stated): common vascular occlusive effect
cytotoxicity at 14 µM (PBMC toxicity): 0%
% Inhib of HIV (HIV; 140 nM, 0.14 µM): 78%
inhibition at 0.14 µM (HIV; Human immunodeficiency virus 1, 140 nM, read-out: % Inhib of HIV): 76%
Rel. potency to MSI-1436, Mitogen Proliferation Assay (splenocytes): 1

SMILES: CC(C)C(CO)(CC[C@@H](C)[C@H]1CC[C@H]2[C@@H]3[C@H](O)C[C@H]4C[C@@H](NCCCNCCCCN)CC[C@]4(C)[C@H]3CC[C@]12C)OS(=O)(=O)O (stereo partly drawn) [Compound 1437]
time to shedding of larval skin ([2]; 10 μg/ml): ≤ 60 min
effect on embryonic epithelium / epithelial shedding (in words) ([2]; 10 μg/ml where stated): dramatic effect on the embryonic epithelium covering the tadpole tail; also recorded: larval skin was observed to shed off in a sheet
anticancer activity (in words) [6]: exhibit anticancer activity
